Experiment: xn = mol fraction of the nth substance listed
Conditions: 100 kPa, Liquid; for viscosity: Capillary tube (Ostwald / Ubbelohde) method; for mass density: Vibrating tube method

O=C1CCCCO1 [1-oxacyclohexan-2-one] + CCCC[n+]1ccn(C)c1.O=S(=O)([N-]S(=O)(=O)C(F)(F)F)C(F)(F)F
Conditions	mass density [kg/m3]	viscosity [mPa·s]
293.15 K, x2 = 0	1108.53	3.68
293.15 K, x2 = 0.0532	1156.68	4.6
293.15 K, x2 = 0.1004	1196.3	5.91
293.15 K, x2 = 0.1504	1229.63	7.47
293.15 K, x2 = 0.1999	1257.2	8.95
293.15 K, x2 = 0.2988	1300.9	13.08
293.15 K, x2 = 0.4006	1337.77	17.95
293.15 K, x2 = 0.5005	1362.9	23.77
293.15 K, x2 = 0.5999	1384.82	30.89
293.15 K, x2 = 0.7	1402.18	37.58
293.15 K, x2 = 0.8013	1418.26	44.8
293.15 K, x2 = 0.8986	1429.23	52.57
298.15 K, x2 = 0	1103.96	3.3
298.15 K, x2 = 0.0532	1152.03	4.09
298.15 K, x2 = 0.1004	1191.61	5.26
298.15 K, x2 = 0.1504	1224.89	6.47
298.15 K, x2 = 0.1999	1252.42	7.78
298.15 K, x2 = 0.2988	1296.08	11.15
298.15 K, x2 = 0.4006	1332.91	15.14
298.15 K, x2 = 0.5005	1358.02	19.8
298.15 K, x2 = 0.5999	1379.92	25.62
298.15 K, x2 = 0.7	1397.27	31.17
298.15 K, x2 = 0.8013	1413.33	37.32
298.15 K, x2 = 0.8986	1424.29	43.18
303.15 K, x2 = 0	1099.44	2.98
303.15 K, x2 = 0.0532	1147.37	3.7
303.15 K, x2 = 0.1004	1186.86	4.58
303.15 K, x2 = 0.1504	1220.09	5.64
303.15 K, x2 = 0.1999	1247.58	6.74
303.15 K, x2 = 0.2988	1291.17	9.63
303.15 K, x2 = 0.4006	1327.96	12.92
303.15 K, x2 = 0.5005	1353.03	16.77
303.15 K, x2 = 0.5999	1374.9	21.34
303.15 K, x2 = 0.7	1392.22	25.71
303.15 K, x2 = 0.8013	1408.28	30.93
303.15 K, x2 = 0.8986	1419.22	35.78
308.15 K, x2 = 0	1094.83	2.7
308.15 K, x2 = 0.0532	1142.72	3.21
308.15 K, x2 = 0.1004	1182.16	4.08
308.15 K, x2 = 0.1504	1215.34	5.09
308.15 K, x2 = 0.1999	1242.79	6.06
308.15 K, x2 = 0.2988	1286.33	8.42
308.15 K, x2 = 0.4006	1323.08	11.04
308.15 K, x2 = 0.5005	1348.13	14.16
308.15 K, x2 = 0.5999	1369.99	18.33
308.15 K, x2 = 0.7	1387.29	21.9
308.15 K, x2 = 0.8013	1403.33	25.49
308.15 K, x2 = 0.8986	1414.26	29.16
313.15 K, x2 = 0	1090.27	2.47
313.15 K, x2 = 0.0532	1138.1	2.9
313.15 K, x2 = 0.1004	1177.47	3.67
313.15 K, x2 = 0.1504	1210.6	4.49
313.15 K, x2 = 0.1999	1238.01	5.31
313.15 K, x2 = 0.2988	1281.5	7.36
313.15 K, x2 = 0.4006	1318.2	9.61
313.15 K, x2 = 0.5005	1343.21	12.24
313.15 K, x2 = 0.5999	1365.03	15.74
313.15 K, x2 = 0.7	1382.31	18.59
313.15 K, x2 = 0.8013	1398.33	21.65
313.15 K, x2 = 0.8986	1409.25	24.7
318.15 K, x2 = 0	1085.71	2.25
318.15 K, x2 = 0.0532	1133.47	2.63
318.15 K, x2 = 0.1004	1172.79	3.24
318.15 K, x2 = 0.1504	1205.87	4.02
318.15 K, x2 = 0.1999	1233.25	4.72
318.15 K, x2 = 0.2988	1276.69	6.55
318.15 K, x2 = 0.4006	1313.34	8.49
318.15 K, x2 = 0.5005	1338.33	10.65
318.15 K, x2 = 0.5999	1360.13	13.7
318.15 K, x2 = 0.7	1377.38	15.98
318.15 K, x2 = 0.8013	1393.37	18.79
318.15 K, x2 = 0.8986	1404.27	21.14
323.15 K, x2 = 0	1081.16	2.09
323.15 K, x2 = 0.0532	1128.86	2.44
323.15 K, x2 = 0.1004	1168.12	2.96
323.15 K, x2 = 0.1504	1201.16	3.63
323.15 K, x2 = 0.1999	1228.6	4.26
323.15 K, x2 = 0.2988	1271.85	5.82
323.15 K, x2 = 0.4006	1308.45	7.49
323.15 K, x2 = 0.5005	1333.4	9.29
323.15 K, x2 = 0.5999	1355.18	11.2
323.15 K, x2 = 0.7	1372.41	13.85
323.15 K, x2 = 0.8013	1388.38	15.68
323.15 K, x2 = 0.8986	1399.26	17.85
